Here are results for nine molecules from patent US5120870A, “Emulsion of lipid containing a prostaglandin analogue” (priority 1989, dated 1992).

Series [1] concerns human platelet aggregation. Conditions: Table 1(b), activity of PGE1 rated 100, cited from earlier work; for Inhibitory effects against human platelet aggregation (relative activity): (no incubation stated).
The next series has as its system platelet aggregation. As to the kind of experiment: Platelet aggregation inhibiting effect, ADP-induced, platelet rich plasma. The format is cell-based. The conditions noted are these: 20 μM ADP, relative to physiological saline. Here is the method: Further, the platelet aggregation inhibiting effects were measured as follows, and the results are shown also in Table 3.
Using sodium citrate (3.8%), peripheral blood was collected (blood 9, sodium citrate 1). This peripheral blood was subjected to centrifugal separation at 1000 rpm for 10 minutes to obtain a platelet rich plasma, and the rest was subjected to centrifugal separation at 3000 rpm for 20 minutes to obtain a plate poor plasma. To 225 μl of the platelet rich plasma, 50 μl of a test sample was added. One minute later, platelet aggregation was induced with 20 μMADP solution 25, whereupon the aggregation inhibitory rate (%) was calculated based on the aggregation rate when a physiological saline solution was added instead of the test sample, being rated as 100%.

Series [2] in a line: Storage stability of the emulsion (HPLC). The format is physicochemical. The conditions noted are these: for Storage stability: Decomposition reaction rate constant: 40° C., calculated from change with time of remaining rate; for Storage stability: Remaining rate: emulsion stored 4 weeks at 40° C., 40320 min. As for the experimental part:
| Storage stability: | Stored for 4 weeks under a temperature condition of 40° C., and th | remaining rate (%) after the 4 weeks was measured. Further, from the | change with time of the remaining rate, the decomposition reaction rate | constant was calculated. The stability during the preparation and the remaining rate in the storage stability was measured by a separation quantitative analysis by means of high performance liquid chromatography, and the ratio of the measured amount relative to the amount at the initiation of the test was taken as the remaining rate.

A short description of series [3]: Stability of the PG analogue during the preparation of the emulsion (HPLC). The format is physicochemical. Conditions: lipid emulsion prepared at 90° C., final concentration 5 μg/ml. Here is the method: To 500 μg of the PG analogue of the formula (2) of the present invention produced as described above, 10 g of purified soybean oil and 1.2 g of purified yolk lecitin were added, and the mixture was melted under heating at 90° C. by means of a homogenizer at 90° C. Then, 2.5 g of glycerol and 90 ml of distilled water for injection were added thereto, followed by rough emulsification by means of a homogenizer at […]. The product is then emulsified by means of a manton gaulin type homogenizer to obtain an emulsion having a final concentration of 5 μg/ml.
The stability of the PG analogue of the present invention during the preparation of the emulsion and the storage stability of the emulsion were measured, and the results are shown in Table 3.
The stability during the preparation and the remaining rate in the storage stability was measured by a separation quantitative analysis by means of high performance liquid chromatography, and the ratio of the measured amount relative to the amount at the initiation of the test was taken as the remaining rate.

The conditions of series [4]: 1.6% BSA-saline solution, mean ± SE, n = 4-7, cited from earlier work.

The structures appear in SMILES notation.

With `CCCCCCCCOC(=O)CCCCCC[C@H]1C(=O)C[C@@H](O)[C@@H]1/C=C/[C@@H](O)CCCCC` [PGE1 octyl ester], the “Inhibitory effects against human platelet aggregation (relative activity), after incubating in human serum for 20 min” value in series [1] is reported as 4.

Regarding `CCCCC[C@H](O)/C=C/[C@H]1[C@H](O)CC(=O)[C@@H]1CCCCCCC(=O)O` [PGE1], the “Platelet aggregation inhibitory effects” value in the series on platelet aggregation is 55%. Further, in series [2], the “Storage stability: Decomposition reaction rate constant” value is 113 d^-1 × 10^3 and the “Storage stability: Remaining rate” value came to 4.6%. Moreover, the “Stability during the preparation” value in series [3] came out at 43.9%.

Regarding `CCCC[C@H](C)C[C@H](O)/C=C/[C@@H]1C(CCCCCCC(=O)OC)=C(OC(C)=O)C[C@H]1O` [Example 4, methyl 9-acetoxy-11α,15S-dihyroxy-17S,20-dimethylprosta-8,13E-diene-1-oate], the “Platelet aggregation inhibitory effects” value with platelet aggregation amounted to 44%. In addition, in series [2], the “Storage stability: Decomposition reaction rate constant” value is 8.87 d^-1 × 10^3 and the “Storage stability: Remaining rate” value was 77.9%. In series [3], the “Stability during the preparation” value is reported as 68.3%.

In the case of `CCCCC[C@H](O)/C=C/[C@@H]1C(CCCCCCC(=O)OCCCC)=C(OC(C)=O)C[C@H]1O` [Example 3, butyl 9-acetoxy-11α,15S-dihydroxyprosta-8,13E-diene-1-oate], in the series on platelet aggregation, the “Platelet aggregation inhibitory effects” value is given as 93%. Further, in series [2], the “Storage stability: Decomposition reaction rate constant” value was 8.30 d^-1 × 10^3 and the “Storage stability: Remaining rate” value amounted to 80.1%. Also, the “Stability during the preparation” value in series [3] came to 72.1%.

In the case of `CCCCC[C@H](O)/C=C/[C@@H]1C(CCCCCCC(=O)OC)=C(OC(C)=O)C[C@H]1O` [Example 2, methyl 9-acetoxy-11α,15S-dihydroxyprosta-9,13E-diene-1-oate], in the series with platelet aggregation, the “Platelet aggregation inhibitory effects” value is given as 100%. In series [2], the “Storage stability: Decomposition reaction rate constant” value is 11.8 d^-1 × 10^3 and the “Storage stability: Remaining rate” value amounted to 72.7%. In addition, the “Stability during the preparation” value in series [3] is 70.4%.

Take `CCCCC[C@H](O)/C=C/[C@H]1[C@H](O)CC(=O)[C@@H]1CCCCCCC(=O)OCCCC` [PGE1 butyl ester]: in series [4], the “% of PGE1 (or ester) liberated from LM, 1 min incubation” value (“% of PGE1 … 1 min incubation” for short) was 60.5 ± 4.0% and the “% of PGE1 (or ester) liberated from LM, 10 min incubation” value (“% of PGE1 … 10 min incubation” for short) is reported as 65.3 ± 5.6%. In series [1], the “Inhibitory effects against human platelet aggregation (relative activity)” value is reported as 29 and the “Inhibitory effects against human platelet aggregation (relative activity), after incubating in human serum for 20 min” value is listed as 89.

Turning to `CCCCOC(=O)CCCCCCC1=C(OC(C)=O)C[C@@H](O)[C@@H]1/C=C/[C@@H](O)C[C@@H](C)CCCC` [Example 1, butyl 9-actoxy-11α,15S-dihyroxy-17S,20-dimethylprosta-8-13E-diene-1-oate], the “Platelet aggregation inhibitory effects” value in the series with platelet aggregation was determined as 37%. Also, in series [2], the “Storage stability: Decomposition reaction rate constant” value is 6.20 d^-1 × 10^3 and the “Storage stability: Remaining rate” value is reported as 84.8%. Besides, in series [3], the “Stability during the preparation” value is 75.6%.

Turning to `CCCCC[C@H](O)/C=C/[C@H]1[C@H](O)CC(=O)[C@@H]1CCCCCCC(=O)OC` [PGE1 methyl ester], in series [4], the “% of PGE1 … 1 min incubation” value is 82.5 ± 3.8% and the “% of PGE1 … 10 min incubation” value is reported as 80.4 ± 2.9%. For the same molecule, in series [1], the “Inhibitory effects against human platelet aggregation (relative activity)” value is 23 and the “Inhibitory effects against human platelet aggregation (relative activity), after incubating in human serum for 20 min” value is reported as 51.

Turning to `CCCCC[C@H](O)/C=C/[C@H]1[C@H](O)CC(=O)[C@@H]1CCCCCCC(=O)OCC` [PGE1 ethyl ester], in series [4], the “% of PGE1 … 1 min incubation” value is 82.0 ± 8.8% and the “% of PGE1 … 10 min incubation” value is recorded as 125.4 ± 11.7%. For the same molecule, in series [1], the “Inhibitory effects against human platelet aggregation (relative activity)” value was 20 and the “Inhibitory effects against human platelet aggregation (relative activity), after incubating in human serum for 20 min” value is on record as 28.
